Test results as given in patent US20220288010A1, “METHODS FOR REDUCING REWARDING EFFECTS OF MORPHINE WITHOUT AFFECTING ITS ANALGESIC EFFECTS” (The Board of Trustees of the Leland Stanford Junior …, priority 2019, published 2022).
Entries after “also recorded” stand apart in the source; their conditions may differ.

Tests used:
mice [1] = assay: morphine conditioned place preference (CPP) paradigm to assess morphine reward; format: in vivo
Text: The ability of a MAGL inhibitor to attenuate the rewarding effect of an opioid can also be assessed in animal models. For example, a morphine conditioning place preference (CPP) paradigm can be used as a preclinical model to measure reward, in which mice are conditioned to associate a particular chamber with the rewarding effects of morphine (see, e.g., Example 1). Reward, e.g., as measured by a preference for the morphine chamber, can be assessed at different phases of morphine conditioning, for example to assess if a MAGL inhibitor decreases or inhibits the establishment of the rewarding effect or of its maintenance or expression.
Endocannabinoid signaling is primarily regulated by MAGL and FAAH, the two enzymes responsible for catabolizing the endogenous cannabinoids, 2-AG and anandamide. Although some studies have shown that inhibition of these enzymes reduces certain aspects of morphine withdrawal, no studies exist that have examined their role in morphine reward. We utilized the morphine conditioned place preference (CPP) paradigm, to assess morphine reward, in which mice are conditioned to associate a particular chamber with the rewarding effects of morphine (FIG. 1A). […] To test the effect of systemic blockade of MAGL with the pharmacological inhibitor JZL-184 on morphine reward, on Day 1 mice underwent a baseline test, on Day 2-5 mice were conditioned to morphine wherein they received an intraperitoneal (i.p.) injection of JLZ-184 (10 mg/kg, i.p.), two hours prior to each morphine conditioning session (FIG. 1B). On day 6, mice were tested for morphine preference. […] Next, to test if this effect of MAGL inhibition was selective for the conditioning phase or potentially could also alter the expression of the morphine preference, mice were injected with JLZ-184 two hours prior to the Day 6 morphine preference test, in the absence of morphine (FIG. 1D).
In order to expand our findings, we decided to test the (R)-3t compound, a reversible MAGL inhibitor, in morphine conditioned place preference. As with JZL-184, (R)-3t (20 mg/kg) was given before each morphine conditioning session (FIG. 3A).
To test the effect of inhibiting the enzyme FAAH on the rewarding effects of morphine, we tested the effect of the FAAH inhibitor PF-3845 in morphine conditioned place preference. […] We additionally found no effect of PF-3845 (10 mg/kg, i.p.) on morphine-induced analgesia and morphine tolerance using the tail-flick test (FIGS. 4E-G).
Inhibition of the MAGL enzyme with JZL-184 results in lower metabolization of the endogenous cannabinoid 2-AG. This implies higher availability of this endogenous cannabinoid receptor 1 (CB1) ligand to activate CB1 receptors. Next, we tested the effect of activating the CB1 receptor with the exogenous CB1 ligand, THC, on morphine conditioned place preference. Mice were systemically administered THC prior to each morphine conditioning session (FIG. 5A).

mice [2] = assay: tail flick test, tolerance to morphine's analgesic effects; format: in vivo
Description: Chronic morphine treatment can result in tolerance to its analgesic effects; therefore, to test if morphine tolerance was affected by MAGL inhibition, for four consecutive days mice received a morning and afternoon injection of JZL-184 (10 mg/kg, i.p.), two hours prior to an injection of morphine (10 mg/kg), and antinociception was assessed every other day in the tail flick test.

mice [3] = assay: tail flick test, morphine analgesia, cumulative dose response of morphine; format: in vivo
[4] = system: nucleus accumbens (NAc) activity; assay: in vivo fiber photometry (GCaMP6s) recording during morphine CPP; conditions: JZL-184 treated mice
Text: FIGS. 7A-7D. MAGL inhibition reduces nucleus accumbens (NAc) activity during morphine CPP. FIG. 7A: Experimental timeline for fiber photometry recording during […]. FIG. 7B: Brain schematic with an optic fiber implanted into the NAc expressing the calcium indicator GCaMP6s and a representative image of the GCaMP6s expressing in the NAc (aca=anterior commissure, AcbC=nucleus accumbens core, AcbSh=nucleus accumbens shell). FIG. 7C: Graph of the quantification of the mean signal (representative of NAc activity) around zone entry into the morphine- or saline-paired chambers of vehicle- or JZL-184-pretreated animals. (dF/F (%) data for the average signal +/− 5s around zone entries; vehicle-treated animals, morphine vs saline chamber *p<0.05, n=6; JZL-184 treated animals, morphine vs saline p=0.054, n=9). FIG. 7D: Graph of the quantification of the onset of approach to morphine- or saline-paired chambers (dF/F (%) data for the average signal +/− 5s of the onset of approaching a chamber; vehicle-treated animals, morphine vs saline chamber *p<0.05, n=6; JZL-184 treated animals, morphine vs saline p=0.39, n=9).
The rewarding effects of morphine have been linked to neural activity of the brain region the nucleus accumbens. […]

mice [5] = assay: cocaine conditioned place preference (CPP); format: in vivo; conditions: JZL-184 prior to each cocaine conditioning session
Text: Although drugs of abuse exert their rewarding effects through similar pathways and brain structures, they use different mechanisms. […] Mice were pretreated with JZL-184 prior to each cocaine conditioning session (FIG. 6A).

[6] = system: monoacylglycerol lipase (MAGL); conditions: cited from earlier work
[7] = pretreatment with PF-3845 10 mg/kg i.p.

CCCCCc1cc(O)c2c(c1)OC(C)(C)[C@@H]1CCC(C)=C[C@@H]21 [THC, Δ^9-Tetrahydrocannabinol]
acquisition of morphine CPP (morphine reward) (mice [1]; THC systemically prior to each morphine conditioning session): had no effect on morphine reward; also recorded: does not alter the acquisition of morphine CPP

O=C(Nc1cccnc1)N1CCC(Cc2cccc(Oc3ccc(C(F)(F)F)cn3)c2)CC1 [PF-3845]
acquisition of morphine CPP (mice [1]; PF-3845 10 mg/kg i.p. before each conditioning session, 10 mg/kg): had no effect on acquisition of morphine conditioned place preference; also recorded: does not alter acquisition of morphine CPP | expression of morphine CPP (mice [1]; PF-3845 10 mg/kg i.p. before the morphine CPP expression test, 10 mg/kg): had no effect; also recorded: does not alter | morphine tolerance (mice [2]; [7]): no effect; also recorded: are not affected | morphine-induced analgesia (mice [3]; [7]): no effect; also recorded: are not affected

O=C(Oc1ccc([N+](=O)[O-])cc1)N1CCC(C(O)(c2ccc3c(c2)OCO3)c2ccc3c(c2)OCO3)CC1 [JZL-184, (4-nitrophenyl) 4-[bis(1,3-benzodioxol-5-yl)-hydroxymethyl]piperidine-1-carboxylate]
acquisition of morphine CPP (morphine reward) (mice [1]; JZL-184 10 mg/kg i.p. two hours prior to each morphine conditioning session (Day 2-5), preference test Day 6, 10 mg/kg): abolishes morphine reward; also recorded: abolishes the rewarding effects of morphine; also recorded: abolished morphine CPP | expression of morphine CPP (mice [1]; JZL-184 two hours prior to the Day 6 morphine preference test, in the absence of morphine): does not alter the expression of morphine CPP | expression of morphine CPP (mice [1]; JZL-184 two hours prior to the Day 6 morphine preference test, in the absence of morphine, listed as JLZ-184): had no effect on morphine reward | higher nucleus accumbens activity when approaching the morphine-paired chamber ([4]; onset of approach (FIG. 7D)): abolished | increase in nucleus accumbens activity prior to entry into the morphine-paired chamber vs saline-paired chamber ([4]; signal around zone entry (FIG. 7C)): absent | acquisition of cocaine CPP (cocaine reward) (mice [5]): did not have any effect on cocaine reward; also recorded: does not alter the acquisition of cocaine CPP | development of tolerance to morphine's analgesic effects (mice [2]; JZL-184 10 mg/kg i.p. morning and afternoon, two hours prior to morphine 10 mg/kg, four consecutive days, compared to vehicle): delayed morphine-induced tolerance; also recorded: delays the development of tolerance to morphine's analgesic effects | morphine-induced analgesia (mice [3]; JZL-184 10 mg/kg i.p. two hours before morphine 0.1-10 mg/kg cumulative, tested 30 minutes after each dose): did not alter the analgesic effects of morphine; also recorded: does not affect morphine-induced analgesia | selectivity for MAGL over other brain serine hydrolases, including FAAH [6]: highly selective for MAGL over other brain serine hydrolases

Cc1ncccc1-c1cc(F)cc(N2C[C@H](N3CCN(c4ncccn4)CC3)CC2=O)c1 [(R)-3t, (4R)-1-[3-fluoro-5-(2-methylpyridin-3-yl)phenyl]-4-[4-(pyrimidin-2-yl)piperazin-1-yl]pyrrolidin-2-one]
acquisition of morphine CPP (morphine reward) (mice [1]; (R)-3t 20 mg/kg before each morphine conditioning session): resulted in a lack of morphine reward; also recorded: abolishes the rewarding effects of morphine; also recorded: abolishes acquisition of CPP
